Laboratory results taken from BindingDB's records for doi:10.1111/cbdd.12131 (University of Pisa, 2013).

Key:
[1] = target: Adenosine receptor A1 (rat); assay: For A1 adenosine receptors, […] of protein were incubated for 60 min at 25°C with [3H]DPCPX 0.5 nM (Kd = 0.4 nM) and increasing concentrations of the compounds, in a final volume of 0.4 mL of Tris-HCl buffer. Binding reaction was terminated by dilution with ice-cold 50 mM Tris-HCl buffer, pH 7.4.For A2A and A3 adenosine receptors, […]
Adenosine receptor A2a = assay: as above
Adenosine receptor A1 = target: T1, Adenosine receptor A1 (Rattus norvegicus, UniProt P25099); assay: Radiological Binding Assay; details: pH 7.4
T1 sequence (P25099 whole entry): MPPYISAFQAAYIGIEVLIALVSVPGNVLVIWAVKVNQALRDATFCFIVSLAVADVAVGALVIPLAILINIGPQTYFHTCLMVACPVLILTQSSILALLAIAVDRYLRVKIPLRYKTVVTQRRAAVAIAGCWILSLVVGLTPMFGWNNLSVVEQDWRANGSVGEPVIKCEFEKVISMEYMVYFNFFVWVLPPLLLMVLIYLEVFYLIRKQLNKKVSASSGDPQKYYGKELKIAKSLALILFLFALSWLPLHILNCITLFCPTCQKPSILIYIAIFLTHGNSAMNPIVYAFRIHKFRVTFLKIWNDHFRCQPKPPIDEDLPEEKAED
Procedure: For A1 adenosine receptors, […] of protein were incubated for 60 min at 25°C with [3H]DPCPX 0.5 nM (Kd = 0.4 nM) and increasing concentrations of the compounds, in a final volume of 0.4 mL of Tris-HCl buffer. Binding reaction was terminated by dilution with ice-cold 50 mM Tris-HCl buffer, pH 7.4.For A2A and A3 adenosine receptors, […] of protein were incubated with [3H]ZM241385 6 nM (Kd = 4 nM) in the experiments involving A2A and with [3H]NECA 15 nM (Kd = 150 nM) involving A3 and the compounds to be assayed, at fixed concentration (10 µM) or at increasing concentrations of the compounds in duplicate, in a final volume of 0.4 mL of Tris-HCl buffer for 120 min at 25°C. Non-specific binding was measured in the presence of 100 µM NECA in the case of A2A and 100 µM R-PIA in the case of A3 binding assay. Bound radioactivity of all samples was measured in a liquid scintillation counter (1600 TR Packard) after the addition of 4 mL of scintillation liquid (Emulsifier-Safe; Hewlett-Packa

Row | SMILES | Ki [1] [nM] | Ki (Adenosine receptor A2a) [nM] | Ki (Adenosine receptor A1) [nM]
1 | O=C(Nc1nc(-c2ccccc2)nc2c1nnn2Cc1ccccc1F)c1ccoc1 [N-[9-(ortho-fluorobenzyl)-2-phenyl-9H-8-azapurin-6-yl]-amides (7)] | 2.3 | 91 | –
2 | O=C(Nc1nc(-c2ccccc2)nc2c1nnn2Cc1ccccc1F)C1CCCC1 [N-[9-(ortho-fluorobenzyl)-2-phenyl-9H-8-azapurin-6-yl]-amides (4)] | 1.4 | 190 | –
3 | O=C(Nc1nc(-c2ccccc2)nc2c1nnn2Cc1ccccc1F)c1cccc(Cl)c1 [N-[9-(ortho-fluorobenzyl)-2-phenyl-9H-8-azapurin-6-yl]-amides (8)] | 43 | – | –
4 | O=C(Nc1nc(-c2ccccc2)nc2c1nnn2Cc1ccccc1F)c1ccc(I)cc1 [N-[9-(ortho-fluorobenzyl)-2-phenyl-9H-8-azapurin-6-yl]-amides (13)] | 92 | – | –
5 | Nc1nc(-c2ccccc2)nc2c1nnn2Cc1ccccc1F [9-(ortho-fluorobenzyl)-2-phenyl-azaadenine (1bis)] | 3.8 | – | 3.8
6 | O=C(Nc1nc(-c2ccccc2)nc2c1nnn2Cc1ccccc1F)C1CCC1 [N-[9-(ortho-fluorobenzyl)-2-phenyl-9H-8-azapurin-6-yl]-amides (3)] | 0.71 | 72 | –
7 | O=C(Nc1nc(-c2ccccc2)nc2c1nnn2Cc1ccccc1F)c1cccc(F)c1 [N-[9-(ortho-fluorobenzyl)-2-phenyl-9H-8-azapurin-6-yl]-amides (9)] | 5.5 | – | –
8 | Nc1ccc(C(=O)Nc2nc(-c3ccccc3)nc3c2nnn3Cc2ccccc2F)cc1 [N-[9-ortho-fluorobenzyl)-2-phenyl-9H-8-azapurin-6-yl]-amides (15)] | 18 | – | –
9 | O=C(Nc1nc(-c2ccccc2)nc2c1nnn2Cc1ccccc1F)C1CCCCC1 [N-[9-(ortho-fluorobenzyl)-2-phenyl-9H-8-azapurin-6-yl]-amides (5)] | 2.1 | 413 | –
10 | O=C(Nc1nc(-c2ccccc2)nc2c1nnn2Cc1ccccc1F)c1cccc([N+](=O)[O-])c1 [N-[9-(ortho-fluorobenzyl)-2-phenyl-9H-8-azapurin-6-yl]-amides (11)] | 28 | – | –
11 | O=C(Nc1nc(-c2ccccc2)nc2c1nnn2Cc1ccccc1F)c1ccco1 [N-[9-(ortho-fluorobenzyl)-2-phenyl-9H-8-azapurin-6-yl]-amides (6)] | 5.5 | 224 | –
12 | O=C(Nc1nc(-c2ccccc2)nc2c1nnn2Cc1ccccc1F)C1CC1 [N-[9-(ortho-fluorobenzyl)-2-phenyl-9H-8-azapurin-6-yl]-amides (2)] | 9.2 | 292 | –
13 | O=C(Nc1nc(-c2ccccc2)nc2c1nnn2Cc1ccccc1F)c1ccc([N+](=O)[O-])cc1 [N-[9-(ortho-fluorobenzyl)-2-phenyl-9H-8-azapurin-6-yl]-amides (12)] | 14 | – | –
